Measured values from ChEMBL document CHEMBL1129240, “Synthesis of acyclo-C-nucleosides in the imidazo[1,2-a]pyridine and pyrimidine series as antiviral agents” (J Med Chem, 1996).
Converted amounts (≈) assume the structure as drawn.

Assays:
[1] = Cytotoxic concentration required to cause microscopically detectable alteration of normal cell morphology of E6SM cells; format: cell-based; details: human, read-out: CC50
Cytomegalovirus [2] = test: Minimum Inhibitory Concentration (MIC) tested for activity against Cytomegalovirus (CMV) using AD169 strain; format: functional; details: Human betaherpesvirus 5
[3] = Minimum cytotoxic concentration to reduce the HEL cell proliferation by 50%; format: cell-based; details: human, HEL cells; read-out: MCC
[4] = Cytotoxic concentration required to cause microscopically detectable alteration of normal cell morphology of HeLa cells; format: cell-based; details: human, read-out: CC50
Human alphaherpesvirus 3 [5] = test: Minimum Inhibitory Concentration (MIC) for activity against Varicella-Zoster Virus(VZV) using OKA (TK+) strain; format: functional
Human alphaherpesvirus 3 [6] = test: Minimum Inhibitory Concentration (MIC) tested for activity against Varicella-Zoster Virus(VZV) using YS(TK+) strain.; format: functional
[7] = Cytotoxic concentration required to cause microscopically detectable alteration of normal cell morphology of Vero cells; format: cell-based; details: chlorocebus sabaeus, read-out: CC50
Cytomegalovirus [8] = test: Minimum Inhibitory Concentration (MIC) tested for activity against Cytomegalovirus (CMV) using Davis strain; format: functional; details: Human betaherpesvirus 5
Human alphaherpesvirus 3 [9] = test: Minimum Inhibition Concentration (MIC) for activity against Varicella-Zoster Virus(VZV) using YS/R (TK-) strain.; format: functional
Human alphaherpesvirus 3 [10] = test: Minimum Inhibitory Concentration (MIC) tested for activity against Varicella-Zoster Virus(VZV) using 07/1 (TK-) strain.; format: functional
[11] = Cytotoxic concentration required to reduce CEM cell viability by 50%; format: cell-based; details: human, CCRF-CEM (CEM) cells
Human alphaherpesvirus 3 [12] = test: Minimum Inhibition Concentration (MIC) for activity against Varicella-Zoster Virus(VZV) using YS(TK+) strain.; format: functional
[13] = Minimum cytotoxic concentration required to reduce human embryonic lung (HEL) cell proliferation by 50%; format: cell-based; details: human embryonic lung (HEL) cells, read-out: MCC
Human alphaherpesvirus 3 [14] = test: Minimum Inhibitory Concentration (MIC) tested for activity against Varicella-Zoster Virus(VZV) using YS/R (TK-) strain.; format: functional
Cytomegalovirus [15] = test: Minimum Inhibition Concentration (MIC) for activity against Cytomegalovirus (CMV) using Davis strain; format: functional; details: Human betaherpesvirus 5
Human alphaherpesvirus 3 [16] = test: Minimum Inhibition Concentration (MIC) for activity against Varicella-Zoster Virus(VZV) using OKA (TK+) strain; format: functional
Cytomegalovirus [17] = test: Minimum Inhibition Concentration( MIC) for activity against Cytomegalovirus (CMV) using AD169 strain; format: functional; details: Human betaherpesvirus 5
Human alphaherpesvirus 3 [18] = test: Minimum Inhibition Concentration (MIC) for activity against Varicella-Zoster Virus(VZV) using 07/1 (TK-) strain.; format: functional
Human alphaherpesvirus 3 [19] = test: Minimum Inhibition Concentration( MIC) for activity against Varicella-Zoster Virus(VZV) using YS(TK+) strain.; format: functional

Structure (SMILES) | MCC [1] [µg/mL] | MIC (Cytomegalovirus [2]) [mg/L] | CC50 [3] [mg/L] | MCC [4] [µg/mL] | MIC (Human alphaherpesvirus 3 [5]) [mg/L] | MIC (Human alphaherpesvirus 3 [6]) [mg/L] | MCC [7] [µg/mL] | MIC (Cytomegalovirus [8]) [mg/L] | MIC (Human alphaherpesvirus 3 [9]) [mg/L] | MIC (Human alphaherpesvirus 3 [10]) [mg/L] | CC50 [11] [mg/L] | MIC (Human alphaherpesvirus 3 [12]) [mg/L] | CC50 [13] [mg/L] | MIC (Human alphaherpesvirus 3 [14]) [mg/L] | MIC (Cytomegalovirus [15]) [mg/L] | MIC (Human alphaherpesvirus 3 [16]) [mg/L] | MIC (Cytomegalovirus [17]) [mg/L] | MIC (Human alphaherpesvirus 3 [18]) [mg/L] | MIC (Human alphaherpesvirus 3 [19]) [mg/L]
Cc1cccc2ncc(CSCCO)n12 | 200 | > 10 | 40 (≈ 180 µM) | 100 | > 10 | > 10 | 200 | > 10 | > 10 | > 10 | 22 (≈ 99 µM) | – | – | – | – | – | – | – | –
Cc1cccn2c(CSCCO)cnc12 | 400 | 7 (≈ 31.5 µM) | 85 (≈ 382 µM) | 40 | 25 (≈ 112 µM) | 10 (≈ 45 µM) | 400 | 6 (≈ 27 µM) | > 10 | 15 (≈ 67.5 µM) | 9.5 (≈ 42.7 µM) | – | – | – | – | – | – | – | –
COC(=O)c1nc2ccccn2c1CSCCO | > 400 | > 50 | – | > 200 | > 25 | – | > 400 | > 50 | – | – | 87 (≈ 327 µM) | > 25 | > 100 | > 25 | – | – | – | – | –
Cc1ccn2c(CSCC(C)O)cnc2c1 (stereo not given) | > 400 | > 50 | > 100 | 400 | > 100 | – | > 400 | – | – | – | 60 (≈ 254 µM) | > 100 | – | 100 (≈ 423 µM) | > 50 | – | – | – | –
Cc1cccn2c(CSCc3ccccc3)cnc12 | 40 | – | 8 (≈ 29.8 µM) | 4 | – | – | 100 | – | > 1 | – | 0.5 (≈ 1.86 µM) | – | – | – | 0.2 (≈ 0.745 µM) | 0.9 (≈ 3.35 µM) | 0.2 (≈ 0.745 µM) | 0.4 (≈ 1.49 µM) | 0.3 (≈ 1.12 µM)
Cc1cccc2ncc(CSCC(O)CO)n12 (stereo not given) | 400 | > 10 | 75 (≈ 297 µM) | > 100 | > 40 | > 40 | 400 | 25 (≈ 99.1 µM) | – | > 40 | 45 (≈ 178 µM) | – | – | > 40 | – | – | – | – | –
CCOC(=O)CSCc1cnc2cc(C)ccn12 | 200 | 25 (≈ 94.6 µM) | 80 (≈ 303 µM) | > 100 | > 40 | > 40 | > 200 | 23 (≈ 87 µM) | – | > 40 | 37 (≈ 140 µM) | – | – | > 40 | – | – | – | – | –
CC(O)CSCc1cnc2ncccn12 (stereo not given) | > 400 | > 40 | > 100 | 400 | > 40 | > 40 | > 400 | > 40 | > 40 | > 40 | > 100 | – | – | – | – | – | – | – | –
Nc1nc2c(ncn2COCCO)c(=O)[nH]1 [ACYCLOVIR] | > 400 | – | > 100 | – | – | – | – | – | – | – | – | – | – | – | – | – | – | – | –
O=c1[nH]c(=O)n([C@H]2C[C@H](O)[C@@H](CO)O2)cc1/C=C/Br [BRIVUDINE] | > 400 | – | > 50 | > 400 | – | – | > 400 | – | > 20 | – | – | 0.002 (≈ 0.006 µM) | – | – | – | 0.0009 (≈ 0.0027 µM) | – | > 50 | –
Nc1ccn(C[C@@H](CO)OCP(=O)(O)O)c(=O)n1.O.O [CIDOFOVIR] | – | 0.05 | > 100 | – | – | – | – | 0.05 | 0.004 | – | – | 0.033 | – | – | – | 0.04 | – | – | –
O=c1[nH]cnc2c1ncn2[C@H]1CC[C@@H](CO)O1 [DIDANOSINE] | – | – | – | – | – | – | – | – | – | – | > 100 | – | – | – | – | – | – | – | –
Nc1nc2c(ncn2COC(CO)CO)c(=O)[nH]1 [GANCICLOVIR] | > 100 | 0.5 (≈ 1.96 µM) | – | – | – | – | – | 0.5 (≈ 1.96 µM) | – | – | – | – | – | – | – | – | – | – | –
NC(=O)c1ncn([C@@H]2O[C@H](CO)[C@@H](O)[C@H]2O)n1 [RIBAVIRIN] | > 400 | – | – | > 200 | – | – | > 400 | – | – | – | – | – | – | – | – | – | – | – | –
Cc1cn([C@H]2C[C@H](N=[N+]=[N-])[C@@H](CO)O2)c(=O)[nH]c1=O [ZIDOVUDINE] | – | – | – | – | – | – | – | – | – | – | > 125 | – | – | – | – | – | – | – | –
